Molecular target: human P2X7 receptor (Homo sapiens, UniProt Q99572, R270H/Y155H)
Assay: Evaluation of human P2X7 receptor inhibitory activity (Yo-Pro uptake, BzATP stimulation, FLIPR TETRA)
Assay type: cell-based
Details: antagonistic activity for the human P2X7 receptor; read-out: IC50
How it was run: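 1321N1 cells stably expressing human P2X7 (T606C/G952A SNP variant), in HBSS buffer pH 7.4-7.5 with Yo-Pro, stimulated with BzATP; compound added 8 min after agonist. Fluorescence followed for 20 min on FLIPR; max-minus-min change gave % inhibition, IC50 by logistic fit.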

Row | SMILES | IC50 [nM]
1 | COCc1cn(Cc2cc(F)c(F)c(F)c2)c(Nc2cc(-c3ncco3)ccc2C)nc1=O [Compound I-1129] | 10 to 100
2 | Cc1cc2c(cc1Nc1nc(=O)c(C#N)cn1Cc1cc(F)c(F)c(F)c1)COC2 [Compound I-1130] | 10 to 100
3 | COCc1cn(Cc2cc(F)c(F)c(F)c2)c(Nc2cc(-c3nnco3)ccc2C)nc1=O [Compound I-1131] | 10 to 100
4 | Cc1cc(N2CCOCC2)ccc1Nc1nc(=O)c(C)cn1Cc1cc(F)c(F)c(F)c1 [Compound I-1132] | 10 to 100
5 | COc1cc(F)c(Nc2nc(=O)c(C)cn2Cc2cc(F)c(F)c(F)c2)cc1OC [Compound I-1133] | 10 to 100
6 | Cc1ccc(S(C)(=O)=O)cc1Nc1nc(=O)ccn1Cc1cc(F)c(F)c(F)c1 [Compound I-1134] | 10 to 100
7 | COc1cc(C)c(Nc2nc(=O)c(C)c(C)n2Cc2cc(F)cc(F)c2)cc1OC [Compound I-1135] | 10 to 100
8 | Cc1nc2cc(C)c(Nc3nc(=O)cc(C)n3Cc3cc(F)c(F)c(F)c3)cc2s1 [Compound I-1136] | 10 to 100
9 | Cc1cc(F)c(-c2cccn(C)c2=O)cc1Nc1nc(=O)ccn1Cc1cc(F)c(F)c(F)c1 [Compound I-1137] | 10 to 100
10 | COCc1cn(Cc2cc(F)c(F)c(F)c2)c(Nc2cc(OC)ccc2C)nc1=O [Compound I-1138] | 10 to 100
11 | COc1cc(Cl)c(Nc2nc(=O)c(C)cn2Cc2cc(F)c(F)c(F)c2)cc1OC [Compound I-1139] | 10 to 100
12 | COCc1cn(Cc2cc(F)c(F)c(F)c2)c(Nc2ccc(OC)cc2C)nc1=O [Compound I-1140] | 10 to 100
13 | COCc1cn(Cc2cc(F)c(F)c(F)c2)c(Nc2cc3sc(C)nc3cc2C)nc1=O [Compound I-1141] | 10 to 100
14 | COCc1cc(=O)nc(Nc2cc(OC)c(OC)cc2C)n1Cc1cc(F)cc(F)c1 [Compound I-1142] | 10 to 100
15 | Cc1ccc(-c2cccn(C)c2=O)cc1Nc1nc(=O)c(C)cn1Cc1cc(F)c(F)c(F)c1 [Compound I-1143] | 10 to 100
16 | COCc1cn(Cc2cc(F)c(F)c(F)c2)c(Nc2cc(OC)c(OC)cc2C)nc1=O [Compound I-1144] | 10 to 100
17 | Cc1ccc(OCCO)cc1Nc1nc(=O)c(C)cn1Cc1cc(F)c(F)c(F)c1 [Compound I-1145] | 10 to 100
18 | COCc1cn(Cc2cc(F)c(F)c(F)c2)c(Nc2cc(Cl)c(OC)cc2C)nc1=O [Compound I-1146] | 10 to 100
19 | COCc1cc(=O)nc(Nc2cc(OC)c(OC)cc2C)n1Cc1cc(F)c(F)c(F)c1 [Compound I-1147] | 10 to 100

Row | SMILES | IC50 [nM]
20 | Cc1cc(F)c(-c2cccn(C)c2=O)cc1Nc1nc(=O)c(C)cn1Cc1cc(F)c(F)c(F)c1 [Compound I-1148] | 10 to 100
21 | Cc1cc(N2CCOCC2)ccc1Nc1nc(=O)ccn1Cc1cc(F)c(F)c(F)c1 [Compound I-1149] | 10 to 100
22 | COc1cc(C)c(Nc2nc(=O)ccn2Cc2cc(F)c(F)c(F)c2)cc1OC [Compound I-1150] | 10 to 100
23 | COc1ccc(C)c(Nc2nc(=O)c(C#N)cn2Cc2cc(F)c(F)c(F)c2)c1 [Compound I-1151] | 10 to 100
24 | COCc1cn(Cc2cc(F)c(F)c(F)c2)c(Nc2cc(CO)ccc2C)nc1=O [Compound I-1152] | < 10
25 | COc1cc(C)c(Nc2nc(=O)c(C)cn2Cc2cc(F)c(F)c(F)c2)cc1OC [Compound I-1153] | < 10
26 | COc1ccc(Nc2nc(=O)c(C)cn2Cc2cc(F)c(F)c(F)c2)c(C)c1 [Compound I-1154] | < 10
27 | COCc1cn(Cc2cc(F)c(F)c(F)c2)c(Nc2cc(C)cc3[nH]ccc23)nc1=O [Compound I-1155] | < 10
28 | COCc1cn(Cc2cc(F)c(F)c(F)c2)c(Nc2cc(C)c(OC)cc2C)nc1=O [Compound I-1156] | < 10
29 | Cc1ccc(-c2nnco2)cc1Nc1nc(=O)c(Cl)cn1Cc1cc(F)c(F)c(F)c1 [Compound I-1157] | < 10
30 | COc1cc(C)c(Nc2nc(=O)c(C(N)=O)cn2Cc2ccc(F)c(F)c2)cc1C [Compound I-1158] | < 10
31 | COc1cc(C)c(Nc2nc(=O)ccn2Cc2ccc(F)c(Cl)c2)cc1OC [Compound I-1159] | < 10
32 | COc1cc(C)c(Nc2nc(=O)c(C#N)cn2Cc2ccc(F)c(F)c2)cc1C [Compound I-1160] | < 10
33 | Cc1cc(Nc2nc(=O)ccn2Cc2cc(F)c(F)c(F)c2)c2cc[nH]c2c1 [Compound I-1161] | < 10
34 | O=C1CCCc2c(Nc3nc(=O)c(Cl)cn3Cc3cc(F)c(F)c(F)c3)cccc21 [Compound I-1162] | < 10
35 | COCc1cn(Cc2cc(F)c(F)c(F)c2)c(Nc2ccc3[nH]ccc3c2C)nc1=O [Compound I-1163] | < 10
36 | Cc1cn(Cc2cc(F)cc(F)c2)c(Nc2ccc3[nH]ccc3c2C)nc1=O [Compound I-1164] | < 10
37 | Cc1cn(Cc2cc(F)c(F)c(F)c2)c(Nc2ccc3[nH]ccc3c2C)nc1=O [Compound I-1165] | < 10
38 | COc1cc(Nc2nc(=O)ccn2Cc2ccc(F)c(Cl)c2)c(C)c(OC)c1 [Compound I-1166] | < 10

Row | SMILES | IC50 [nM]
39 | COc1ccc(Nc2nc(=O)cc(C)n2Cc2cc(F)c(F)c(F)c2)c(C)c1 [Compound I-1167] | < 10
40 | Cc1cn(Cc2ccc(F)c(F)c2)c(Nc2ccc3[nH]ccc3c2C)nc1=O [Compound I-1168] | < 10
41 | Cc1c(Nc2nc(=O)ccn2Cc2cc(F)c(F)c(F)c2)ccc2[nH]ccc12 [Compound I-1169] | < 10
42 | Cc1c(Nc2nc(=O)ccn2Cc2ccc(F)c(Cl)c2)ccc2[nH]ccc12 [Compound I-1170] | < 10
43 | Cc1c(Nc2nc(=O)ccn2Cc2cc(F)cc(F)c2)ccc2[nH]ccc12 [Compound I-1171] | < 10
44 | O=c1nc(Nc2cccc3c2CCCO3)n(Cc2cc(F)c(F)c(F)c2)cc1F [Compound I-1173] | < 10
45 | COc1cc(C)c(Nc2nc(=O)c(F)cn2Cc2cc(F)cc(F)c2)cc1Cl [Compound I-1174] | < 10
46 | COc1cc(C)c(Nc2nc(=O)c(F)cn2Cc2cc(F)c(F)c(F)c2)cc1Cl [Compound I-1175] | < 10
47 | CCc1ccccc1Nc1nc(=O)c(F)cn1Cc1cc(F)c(F)c(F)c1 [Compound I-1176] | < 10
48 | Cc1c(CO)cccc1Nc1nc(=O)c(F)cn1Cc1cc(F)c(F)c(F)c1 [Compound I-1177] | < 10
49 | COCc1cccc(Nc2nc(=O)c(F)cn2Cc2cc(F)c(F)c(F)c2)c1C [Compound I-1178] | < 10
50 | COCCOc1ccc(C)c(Nc2nc(=O)c(F)cn2Cc2cc(F)c(F)c(F)c2)c1 [Compound I-1179] | < 10
51 | COc1cc(C)c(Nc2nc(=O)c(F)cn2Cc2cc(F)c(F)c(F)c2)cc1C [Compound I-1180] | < 10
52 | Cc1c(F)cccc1Nc1nc(=O)c(F)cn1Cc1cc(F)c(F)c(F)c1 [Compound I-1181] | < 10
53 | Cc1nc2cc(Cl)c(Nc3nc(=O)c(F)cn3Cc3cc(F)c(F)c(F)c3)cc2s1 [Compound I-1182] | < 10
54 | Cc1nc2cc(C)c(Nc3nc(=O)c(F)cn3Cc3cc(F)c(F)c(F)c3)cc2o1 [Compound I-1183] | < 10
55 | Cc1ccc(Nc2nc(=O)c(F)cn2Cc2cc(F)c(F)c(F)c2)c(Cl)c1 [Compound I-1184] | < 10
56 | Cc1cccc(Nc2nc(=O)c(F)cn2Cc2cc(F)c(F)c(F)c2)c1F [Compound I-1185] | < 10
57 | COc1ccc(Nc2nc(=O)c(F)cn2Cc2cc(F)c(F)c(F)c2)c(Cl)c1 [Compound I-1186] | < 10

Reference: patent US10774051B2, “6-membered heterocyclic derivatives and pharmaceutical composition comprising the same” (Shionogi & Co., Ltd., priority 2015, dated 2020)
